According to patent US11609178B2, “Apparatus for analysing a liquid sample comprising particles” (UNIVERSITY COURT OF THE UNIVERSITY OF ST ANDREWS, priority 2018, dated 2023):

Columns and labels:
Type in all cases: cell-based
[1] = tested on: bacterial growth of samples; assay: Detection apparatus, bacterial growth with antibiotics at EUCAST breakpoint, FIG. 8(a) / Table 1; parameters: key to S or R result (sensitive / resistant): S: sensitive; R: resistant; conditions: Table 1, FIG. 8(a); antibiotic at EUCAST breakpoint concentration
Method: (§1) FIG. 8(a) and FIG. 8(b) are plots showing bacterial growth of samples as a function of time in the presence of different types of antibiotics. FIGS. 8(a) and 8(b) illustrate break points for different types of antibiotics. Measurements derived using the data shown in FIGS. 8(a) and 8(b) are shown in Table 1 and Table 2, respectively.
(§2) At a fourth step, a test process is performed that includes incubation and obtaining readings. Tests will typically run for a maximum of 30 minutes.
(§3) At a fifth step, an analysis process is performed based on the readings obtained from the test process. The analysis process includes determining if the strain is sensitive or resistant to the or an antibiotic or other agent in the sample chamber based on the obtained readings. Determining whether a sample is sensitive or resistant to an antibiotic or other agent may be referred to as obtaining an S result or an R result. Determining if a sample is a S result or an R result may include comparing a reading to threshold criteria.
(§4) As a first example, if the sample fails to show a 50% inhibition, the sample will be declared R after 30 minutes. In some embodiments, the analysis process includes providing sensitivity results.

Klebsiella = assay: Bacterial growth over time in urine samples with different antibiotics (FIG. 10); conditions: urine samples containing Klebsiella; growth curve compared with control line
Method: As a first stage a biological sample containing urine is obtained. A spinning process is applied to the sample and the sample is aliquoted or otherwise divided into wells. The samples are then incubated in an incubator. After a pre-determined time, each sample, in a sample chamber, is moved into a detection configuration with the detection apparatus. This may involve placing the sample in a cuvette into the sample chamber. This may involve sequentially moving a plurality of sample chambers into the detection configuration. More than one measurement for each sample may be performed and stored to establish growth curves, for example, those shown in FIGS. 6, 7, 8 and 10.
FIG. 10 is a plot of bacterial growth as a function of time in urine samples in the presence of different types of antibiotics. The urine samples contain a significant amount of Klebsiella resistant to meropenem and susceptible to penicillin, amoxicillin, gentamicin and ciprofloxacin. The control line is the upper most line.
The second upper most line correspond to results for a urine sample treated with meropenem. The second upper most line overlaps in part with the control line. The urine sample is thus shown to be resistant to meropenem. The other lines correspond to results for urine samples treated with ciprofloxacin, gentamicin, penicillin and amoxicillin.

[2] = tested on: bacterial growth of samples; assay: Reference susceptibility test (Vitek 2), sample of FIG. 8(a) / Table 1; conditions: Table 1, sample of FIG. 8(a)
Source text: as §1

[3] = tested on: bacterial growth of samples; assay: Reference susceptibility test (Vitek 2), sample of FIG. 8(b) / Table 2; conditions: Table 2, sample of FIG. 8(b)
Source text: as §1

[4] = tested on: bacterial growth of samples; assay: Detection apparatus, bacterial growth with antibiotics at EUCAST breakpoint, FIG. 8(b) / Table 2; parameters: key to S or R result (sensitive / resistant): S: sensitive; R: resistant; conditions: Table 2, FIG. 8(b); antibiotic at EUCAST breakpoint concentration
Method: as §1, §2, §3, §4

E. coli = assay: Bacterial growth over time by light scattering at different antibiotic concentrations (FIGS. 6 and 7); conditions: from plot of detector output vs time
Source text: Any suitable detection and analysis system may be used with the embodiments of FIGS. 1 to 5. In some embodiments a detection and analysis system as described in WO 2016/128747 is used. The content of WO 2016/128747 is hereby incorporated by reference. In some embodiments a light source in the form of a 635 nm wavelength laser is used (any light in the wavelength range 620-750 nm is used in some other embodiments). The laser in this embodiment is connected to a signal generator that is adapted to control a modulation frequency and phase of the laser output. The photodetector is connected to a digital phase sensitive detector (PSD). An input of an amplifier is connected to the signal generator. An output of the amplifier is connected to a digital oscilloscope 66. […]
The signal generator is arranged to modulate the output frequency of the laser source. […] The detected signal is filtered by the PSD. The PSD filters the detected signal from the photodetector. The PSD synchronizes the detected signal with the modulation applied to the light source to provide a dampening system that eliminates unwanted noise, for example, background electrical or luminous noise. The filtered signal is sent to the digital oscilloscope to be recorded. […]

## CC1(C)S[C@@H]2[C@H](NC(=O)[C@H](N)c3ccc(O)cc3)C(=O)N2[C@H]1C(=O)O [Amoxicillin]
[1]
  S or R result (sensitive / resistant): (S)
  Time To Results: 2.93 min
Klebsiella
  susceptibility of bacteria in urine sample: susceptible

## CC1(C)S[C@@H]2[C@H](NC(=O)[C@H](N)c3ccccc3)C(=O)N2[C@H]1C(=O)O [Ampicillin]
[2]
  Reference (Vitek 2 result): 8 Mg/L
[3]
  Reference (Vitek 2 result): >0.5 Mg/L
[4]
  S or R result (sensitive / resistant): (R)
  Time To Results: >30 min

## O=C(O)c1cn(C2CC2)c2cc(N3CCNCC3)c(F)cc2c1=O [Ciprofloxacin]
[2]
  Reference (Vitek 2 result): ≤0.25 Mg/L
[1]
  S or R result (sensitive / resistant): (S)
  Time To Results: 4.4 min
[3]
  Reference (Vitek 2 result): 0.5 Mg/L
[4]
  S or R result (sensitive / resistant): (S)
  Time To Results: 3.37 min
Klebsiella
  susceptibility of bacteria in urine sample: susceptible

## CC[C@H]1OC(=O)[C@H](C)[C@@H](O[C@H]2C[C@@](C)(OC)[C@@H](O)[C@H](C)O2)[C@H](C)[C@@H](O[C@@H]2O[C@H](C)C[C@H](N(C)C)[C@H]2O)[C@](C)(O)C[C@@H](C)C(=O)[C@H](C)[C@@H](O)[C@]1(C)O [Erythromycin]
[3]
  Reference (Vitek 2 result): 1 Mg/L
[4]
  S or R result (sensitive / resistant): (S)
  Time To Results: 3.3 min

## C[C@@H](O)[C@H]1C(=O)N2C(C(=O)O)=C(S[C@@H]3CN[C@H](C(=O)N(C)C)C3)[C@H](C)[C@H]12 [Meropenem, meropenem]
E. coli
  mode of action: causes lysis and a reduction in scattering
[2]
  Reference (Vitek 2 result): ≤0.25 Mg/L
[1]
  S or R result (sensitive / resistant): (S)
  Time To Results: 2.57 min
[4]
  S or R result (sensitive / resistant): (S)
  Time To Results: 2.2 min
Klebsiella
  susceptibility of bacteria in urine sample: resistant

## COc1c(N2C[C@@H]3CCCN[C@@H]3C2)c(F)cc2c(=O)c(C(=O)O)cn(C3CC3)c12 [Moxifloxacin]
[2]
  Reference (Vitek 2 result): ≤0.25 Mg/L

## O=C1CN(/N=C/c2ccc([N+](=O)[O-])o2)C(=O)N1 [Nitrofurantoin]
[3]
  Reference (Vitek 2 result): 16 Mg/L
[4]
  S or R result (sensitive / resistant): (S)
  Time To Results: 3.37 min

## COc1cc(Cc2cnc(N)nc2N)cc(OC)c1OC [Trimethoprim]
[2]
  Reference (Vitek 2 result): ≤0.5 Mg/L
[1]
  S or R result (sensitive / resistant): (S)
  Time To Results: 0.73 min
[3]
  Reference (Vitek 2 result): 0.5-2 Mg/L
[4]
  S or R result (sensitive / resistant): (S)
  Time To Results: 7.33 min

## CN[C@H](CC(C)C)C(=O)N[C@H]1C(=O)N[C@@H](CC(N)=O)C(=O)N[C@H]2C(=O)N[C@H]3C(=O)N[C@H](C(=O)N[C@H](C(=O)O)c4cc(O)cc(O)c4-c4cc3ccc4O)[C@H](O)c3ccc(c(Cl)c3)Oc3cc2cc(c3O[C@@H]2O[C@H](CO)[C@@H](O)[C@H](O)[C@H]2O[C@H]2C[C@](C)(N)[C@H](O)[C@H](C)O2)Oc2ccc(cc2Cl)[C@H]1O [Vancomycin]
[3]
  Reference (Vitek 2 result): 1 Mg/L
[4]
  S or R result (sensitive / resistant): (S)
  Time To Results: 7.33 min

## Augmentin (co-amox)
[2]
  Reference (Vitek 2 result): 2 Mg/L
[1]
  S or R result (sensitive / resistant): (S)
  Time To Results: 2.2 min
[3]
  Reference (Vitek 2 result): ≤2 Mg/L
[4]
  S or R result (sensitive / resistant): (R)
  Time To Results: >30 min

## gentamicin
E. coli
  minimum inhibitory concentration (MIC): below 2 mg/L
[2]
  Reference (Vitek 2 result): ≤1 Mg/L
[1]
  S or R result (sensitive / resistant): (S)
  Time To Results: 0.73 min
[3]
  Reference (Vitek 2 result): 0.5-8 Mg/L
[4]
  S or R result (sensitive / resistant): (S)
  Time To Results: 0.37 min
Klebsiella
  susceptibility of bacteria in urine sample: susceptible

## penicillin
Klebsiella
  susceptibility of bacteria in urine sample: susceptible
